From ChEMBL document CHEMBL3272261, “Aminobenzioc acid diuretics. 8.(2) 3, 4-Disubstituted 5-methylsulfonylbenzioc acids and related compounds” (1976)
The source made the active and inactive calls. No cut-off for these calls is given here.

Columns and labels:
Canis familiaris [1] = assay: Saluretic activity in dog assessed as urinary excretion of potassium level at 1 mg/kg, iv after 3 hrs; type: functional, Canis lupus familiaris, Urine
Canis familiaris [2] = assay: Saluretic activity in dog assessed as urinary excretion of chloride level at 1 mg/kg, iv after 3 hrs; type: functional, Canis lupus familiaris, Urine
Canis familiaris [3] = assay: Diuretic activity in dog assessed as urine volume measured in water at 1 mg/kg, iv after 3 hrs; type: functional, Canis lupus familiaris
Canis familiaris [4] = assay: Saluretic activity in dog assessed as urinary excretion of sodium level at 1 mg/kg, iv after 3 hrs; type: functional, Canis lupus familiaris, Urine
Canis familiaris [5] = assay: Saluretic activity in dog assessed as urinary excretion of sodium level at 0.1 mg/kg, po after 3 hrs; type: functional, Canis lupus familiaris, Urine
Canis familiaris [6] = assay: Diuretic activity in dog assessed as urine volume measured in water at 0.1 mg/kg, po after 3 hrs; type: functional, Canis lupus familiaris
Canis familiaris [7] = assay: Saluretic activity in dog assessed as urinary excretion of potassium level at 0.1 mg/kg, po after 3 hrs; type: functional, Canis lupus familiaris, Urine
Canis familiaris [8] = assay: Saluretic activity in dog assessed as urinary excretion of chloride level at 0.1 mg/kg, po after 3 hrs; type: functional, Canis lupus familiaris, Urine
Canis familiaris [9] = assay: Saluretic activity in dog assessed as urinary excretion of chloride level at 1 mg/kg, po after 3 hrs; type: functional, Canis lupus familiaris, Urine
Canis familiaris [10] = assay: Saluretic activity in dog assessed as urinary excretion of potassium level at 1 mg/kg, po after 3 hrs; type: functional, Canis lupus familiaris, Urine
Canis familiaris [11] = assay: Diuretic activity in dog assessed as urine volume measured in water at 1 mg/kg, po after 3 hrs; type: functional, Canis lupus familiaris
Canis familiaris [12] = assay: Saluretic activity in dog assessed as urinary excretion of sodium level at 1 mg/kg, po after 3 hrs; type: functional, Canis lupus familiaris, Urine
Canis familiaris [13] = assay: Diuretic activity in dog assessed as urine volume measured in water at 10 mg/kg, iv after 3 hrs; type: functional, organism-based; parameters: dose 10 mg/kg; conditions: Canis lupus familiaris
Canis familiaris [14] = assay: Saluretic activity in dog assessed as urinary excretion of chloride level at 0.1 mg/kg, iv after 3 hrs; type: functional, Canis lupus familiaris, Urine
Canis familiaris [15] = assay: Diuretic activity in dog assessed as urine volume measured in water at 0.1 mg/kg, iv after 3 hrs; type: functional, Canis lupus familiaris
Canis familiaris [16] = assay: Saluretic activity in dog assessed as urinary excretion of chloride level at 0.25 mg/kg, iv after 3 hrs; type: functional, Canis lupus familiaris, Urine
Canis familiaris [17] = assay: Saluretic activity in dog assessed as urinary excretion of sodium level at 0.01 mg/kg, iv after 3 hrs; type: functional, Canis lupus familiaris, Urine
Canis familiaris [18] = assay: Saluretic activity in dog assessed as urinary excretion of chloride level at 0.01 mg/kg, iv after 3 hrs; type: functional, Canis lupus familiaris, Urine
Canis familiaris [19] = assay: Diuretic activity in dog assessed as urine volume measured in water at 0.01 mg/kg, iv after 3 hrs; type: functional, Canis lupus familiaris
Canis familiaris [20] = assay: Diuretic activity in dog assessed as urine volume measured in water at 0.25 mg/kg, iv after 3 hrs; type: functional, Canis lupus familiaris
Canis familiaris [21] = assay: Saluretic activity in dog assessed as urinary excretion of potassium level at 0.1 mg/kg, iv after 3 hrs; type: functional, Canis lupus familiaris, Urine
Canis familiaris [22] = assay: Saluretic activity in dog assessed as urinary excretion of sodium level at 0.25 mg/kg, iv after 3 hrs; type: functional, Canis lupus familiaris, Urine
Canis familiaris [23] = assay: Saluretic activity in dog assessed as urinary excretion of sodium level at 0.1 mg/kg, iv after 3 hrs; type: functional, Canis lupus familiaris, Urine
Canis familiaris [24] = assay: Saluretic activity in dog assessed as urinary excretion of potassium level at 0.25 mg/kg, iv after 3 hrs; type: functional, Canis lupus familiaris, Urine
Canis familiaris [25] = assay: Saluretic activity in dog assessed as urinary excretion of potassium level at 0.01 mg/kg, iv after 3 hrs; type: functional, Canis lupus familiaris, Urine

Compound `CS(=O)(=O)c1cc(C(=O)O)c(NCc2ccco2)cc1Oc1ccccc1` has an Activity (Canis familiaris [1]) of 0.39 milliequivalent/kg, an Activity (Canis familiaris [2]) of 2 milliequivalent/kg and an Activity (Canis familiaris [3]) of 14 mL/kg. For the same compound, the Activity (Canis familiaris [4]) was 1.7 milliequivalent/kg.

`CS(=O)(=O)c1cc(C(=O)O)cc(OCc2ccccc2)c1C(=O)c1ccccc1` gave an Activity (Canis familiaris [5]) of 1.2 milliequivalent/kg, an Activity (Canis familiaris [6]) of 11 mL/kg and an Activity (Canis familiaris [7]) of 0.25 milliequivalent/kg. For the same compound, the Activity (Canis familiaris [8]) was 1.7 milliequivalent/kg.

`C[S+]([O-])c1cc(C(=O)O)cc(NCc2ccccc2)c1Oc1ccccc1` (stereo not drawn) gave an Activity (Canis familiaris [1]) of 0.17 milliequivalent/kg, an Activity (Canis familiaris [2]) of 1.1 milliequivalent/kg and an Activity (Canis familiaris [3]) of 7 mL/kg. It also gave an Activity (Canis familiaris [4]) of 0.9 milliequivalent/kg.

With `CCCCOc1cc(C(=O)O)cc(S(C)(=O)=O)c1C(=O)c1ccccc1` the Activity (Canis familiaris [5]) was 0.5 milliequivalent/kg, the Activity (Canis familiaris [6]) was 4 mL/kg and the Activity (Canis familiaris [9]) was 3.4 milliequivalent/kg. The Activity (Canis familiaris [7]) was 0.22 milliequivalent/kg, the Activity (Canis familiaris [10]) was 0.54 milliequivalent/kg and the Activity (Canis familiaris [11]) was 24 mL/kg. It also gave an Activity (Canis familiaris [12]) of 2.6 milliequivalent/kg and an Activity (Canis familiaris [8]) of 0.8 milliequivalent/kg.

`CS(=O)(=O)c1cc(C(=O)O)c(NCc2ccccc2)cc1Sc1ccccc1` was tested, and the Activity (Canis familiaris [13]) was “inactive”.

`CCCCNc1cc(C(=O)O)cc(S(N)(=O)=O)c1Oc1ccccc1` [BUMETANIDE] gave an Activity (Canis familiaris [14]) of 3.5 milliequivalent/kg, an Activity (Canis familiaris [15]) of 26 mL/kg and an Activity (Canis familiaris [16]) of 5.7 milliequivalent/kg. For the same compound, the Activity (Canis familiaris [17]) was 0.92 milliequivalent/kg, the Activity (Canis familiaris [18]) was 1.4 milliequivalent/kg and the Activity (Canis familiaris [19]) was 10 mL/kg. It also gave an Activity (Canis familiaris [20]) of 39 mL/kg, an Activity (Canis familiaris [21]) of 0.44 milliequivalent/kg and an Activity (Canis familiaris [5]) of 3.3 milliequivalent/kg. The Activity (Canis familiaris [6]) was 31 mL/kg, the Activity (Canis familiaris [22]) was 4 milliequivalent/kg and the Activity (Canis familiaris [7]) was 0.49 milliequivalent/kg. For the same compound, the Activity (Canis familiaris [23]) was 2.4 milliequivalent/kg, the Activity (Canis familiaris [24]) was 0.84 milliequivalent/kg and the Activity (Canis familiaris [8]) was 4.5 milliequivalent/kg. The Activity (Canis familiaris [25]) was 0.27 milliequivalent/kg.

With `CS(=O)(=O)c1cc(C(=O)O)cc(NCc2ccccc2)c1Nc1ccccc1` the Activity (Canis familiaris [20]; Canis lupus familiaris) was “inactive”.

For `CS(=O)(=O)c1cc(C(=O)O)c(NCc2ccccc2)cc1Oc1ccccc1`, the Activity (Canis familiaris [13]) was “inactive”.

With `CS(=O)(=O)c1cc(C(=O)O)cc(NCc2ccccc2)c1Sc1ccccc1` the Activity (Canis familiaris [16]) was 1 milliequivalent/kg, the Activity (Canis familiaris [20]) was 6 mL/kg and the Activity (Canis familiaris [1]) was 0.28 milliequivalent/kg. For the same compound, the Activity (Canis familiaris [2]) was 2.4 milliequivalent/kg, the Activity (Canis familiaris [22]) was 0.9 milliequivalent/kg and the Activity (Canis familiaris [3]) was 17 mL/kg. It also gave an Activity (Canis familiaris [24]) of 0.18 milliequivalent/kg and an Activity (Canis familiaris [4]) of 2 milliequivalent/kg.

For `NS(=O)(=O)c1cc(C(=O)O)c(NCc2ccco2)cc1Oc1ccccc1`, the Activity (Canis familiaris [14]) was 3.8 milliequivalent/kg, the Activity (Canis familiaris [15]) was 25 mL/kg and the Activity (Canis familiaris [17]) was 0.6 milliequivalent/kg. The Activity (Canis familiaris [18]) was 0.8 milliequivalent/kg, the Activity (Canis familiaris [19]) was 8 mL/kg and the Activity (Canis familiaris [21]) was 0.45 milliequivalent/kg. For the same compound, the Activity (Canis familiaris [23]) was 2.9 milliequivalent/kg and the Activity (Canis familiaris [25]) was 0.27 milliequivalent/kg.

Compound `CCCCNc1cc(C(=O)O)cc(S(C)(=O)=O)c1Oc1ccccc1` has an Activity (Canis familiaris [14]) of 0.4 milliequivalent/kg, an Activity (Canis familiaris [15]) of 3 mL/kg and an Activity (Canis familiaris [21]) of 0.19 milliequivalent/kg. For the same compound, the Activity (Canis familiaris [1]) was 0.22 milliequivalent/kg, the Activity (Canis familiaris [2]) was 2.7 milliequivalent/kg and the Activity (Canis familiaris [23]) was 0.6 milliequivalent/kg. It also gave an Activity (Canis familiaris [3]) of 15 mL/kg and an Activity (Canis familiaris [4]) of 2.1 milliequivalent/kg.
